The record followed here is PubChem BioAssay (NCI).

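Assay format: 96-well plates, 48-hour exposure. Definition used: TGI = concentration required for complete inhibition of growth.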

Test systems include SN12C renal; PC-3 prostate; UACC-62 melanoma; HOP-92 NSCLC; HS 578T breast; OVCAR-3 ovarian; SF-539 CNS; MDA-N; SNB-75 CNS; HCT-116 colon; UACC-257 melanoma; NCI/ADR-RES ovarian; M14 melanoma; MDA-MB-231 breast; 786-0 renal; HCC-2998 colon.
Common to all, as to assay: NCI anticancer screen, dose series, 48 h

Take `Clc1ccc(Cl)c(Nc2ccnc(SCc3ccccc3)n2)c1`: the TGI with SN12C renal, with PC-3 prostate, with UACC-62 melanoma, in the assay with HOP-92 NSCLC, in the assay on HS 578T breast and in the assay on OVCAR-3 ovarian was more than 100 µM each time. For the same compound, the TGI in the assay with SF-539 CNS, in the assay with MDA-N, with SNB-75 CNS, in the assay with HCT-116 colon, with UACC-257 melanoma and with NCI/ADR-RES ovarian was more than 100 µM each time. In addition, the TGI in the assay on M14 melanoma, with MDA-MB-231 breast and in the assay with 786-0 renal was more than 100 µM in each case.
Consider `Cc1cccc2c1[C@]13OC(C)[C@]4(C)CC5OC(=O)[C@@]1(C)[C@@H]5[C@]34C(=O)O2` (some centres not stated), for which the TGI in the assay on SN12C renal, in the assay on PC-3 prostate, with UACC-62 melanoma, in the assay with HS 578T breast, with OVCAR-3 ovarian and with SF-539 CNS was more than 100 µM each time. Moreover, the TGI in the assay with MDA-N, in the assay with SNB-75 CNS, in the assay on HCC-2998 colon, in the assay on HCT-116 colon, in the assay with UACC-257 melanoma and in the assay with NCI/ADR-RES ovarian was more than 100 µM in each case. Besides, the TGI with M14 melanoma, in the assay on MDA-MB-231 breast and in the assay on 786-0 renal was more than 100 µM throughout.
For `COc1ccc2c3c1O[C@H]1C(O)CCC4(O)[C@@H](C2)NCC[C@]314` (some centres not stated), the TGI in the assay with SN12C renal, in the assay on PC-3 prostate, in the assay with UACC-62 melanoma, in the assay with HOP-92 NSCLC, with HS 578T breast and in the assay with OVCAR-3 ovarian was more than 100 µM throughout. In addition, the TGI with SF-539 CNS, in the assay with MDA-N, in the assay with HCT-116 colon, in the assay on UACC-257 melanoma, with NCI/ADR-RES ovarian and with M14 melanoma was more than 100 µM in each case. The TGI in the assay on MDA-MB-231 breast and in the assay with 786-0 renal was more than 100 µM throughout.
On to `Cc1cc(C)cc(C(=N)c2ccccc2Cc2cccc3ccccc23)c1`, for which the TGI was 34.8 µM with SN12C renal; more than 100 µM in the assay on PC-3 prostate; 29 µM in the assay on UACC-62 melanoma; 29 µM in the assay with HOP-92 NSCLC; 21.7 µM in the assay on HS 578T breast; 32.9 µM with OVCAR-3 ovarian. For the same compound, the TGI in the assay with SF-539 CNS was found to be 30 µM; with MDA-N, 54.2 µM; in the assay on HCT-116 colon, 23.2 µM; in the assay with UACC-257 melanoma, 64.1 µM; with NCI/ADR-RES ovarian it was 46.3 µM; in the assay with M14 melanoma, 40.1 µM. In addition, the TGI in the assay with MDA-MB-231 breast was more than 100 µM; with 786-0 renal, 31.8 µM.
For the compound `CCN1c2nc3ccccc3nc2N(CC)c2nc3ccccc3nc21`, the TGI in the assay on SN12C renal is more than 100 µM; with PC-3 prostate, more than 100 µM; in the assay on UACC-62 melanoma it was more than 100 µM; with HS 578T breast, more than 100 µM; with OVCAR-3 ovarian, more than 100 µM; in the assay with SF-539 CNS, 94 µM. The TGI with MDA-N, in the assay with HCC-2998 colon, in the assay on HCT-116 colon, with NCI/ADR-RES ovarian, with M14 melanoma and in the assay on MDA-MB-231 breast was more than 100 µM each time. Moreover, in the assay on 786-0 renal, the TGI is more than 100 µM.
On to `COc1ccc2c(c1C)C(=O)C(O)(CC=C(C)C)O2` (configuration not stated), for which the TGI with SN12C renal, in the assay with PC-3 prostate, in the assay with UACC-62 melanoma, with HS 578T breast, in the assay with OVCAR-3 ovarian and in the assay with SF-539 CNS was more than 100 µM in each case. Further, the TGI in the assay with MDA-N, with SNB-75 CNS, in the assay with HCC-2998 colon, with HCT-116 colon, with UACC-257 melanoma and in the assay with NCI/ADR-RES ovarian was more than 100 µM in each case. The TGI in the assay on M14 melanoma, in the assay with MDA-MB-231 breast and with 786-0 renal was more than 100 µM each time.
On to `COC1=C(Br)[C@H](O)[C@@]2(C=C1Br)CC(C(=O)NCCCCCN=C(N)N)=NO2`, for which the TGI in the assay on SN12C renal, in the assay on PC-3 prostate, with UACC-62 melanoma, in the assay on HS 578T breast, with OVCAR-3 ovarian and in the assay with SF-539 CNS was more than 10 µM throughout. For the same compound, the TGI in the assay on MDA-N, with SNB-75 CNS, in the assay with HCC-2998 colon, in the assay on HCT-116 colon, with UACC-257 melanoma and in the assay with NCI/ADR-RES ovarian was more than 10 µM in each case. Also, the TGI with M14 melanoma, in the assay on MDA-MB-231 breast and in the assay on 786-0 renal was more than 10 µM in each case.
On to `CC1(C)c2ccccc2C(=O)C12CCC(=O)CC2`, for which the TGI in the assay on SN12C renal, with PC-3 prostate, in the assay on UACC-62 melanoma, in the assay on HS 578T breast, with SF-539 CNS and in the assay with MDA-N was more than 100 µM in each case. Also, the TGI in the assay with SNB-75 CNS, in the assay on HCC-2998 colon, with HCT-116 colon, with UACC-257 melanoma, with NCI/ADR-RES ovarian and in the assay on M14 melanoma was more than 100 µM throughout. For the same compound, the TGI in the assay on MDA-MB-231 breast and in the assay with 786-0 renal was more than 100 µM in each case.
Turning to `C[C@H]1[C@H](C)CC[C@]2(C)CC[C@]3(C)C(=C[C@@H](O)[C@@H]4[C@@]5(C)[C@H](O)[C@@H](O)[C@H](O)C(C)(C)[C@@H]5CC[C@]43C)[C@H]12`, the TGI with SN12C renal, in the assay on PC-3 prostate, in the assay with UACC-62 melanoma, in the assay on HS 578T breast, in the assay on OVCAR-3 ovarian and in the assay with SF-539 CNS was more than 100 µM each time. Moreover, the TGI with MDA-N, with HCT-116 colon, in the assay with UACC-257 melanoma, with NCI/ADR-RES ovarian, in the assay with M14 melanoma and with MDA-MB-231 breast was more than 100 µM each time. Moreover, in the assay with 786-0 renal, the TGI was more than 100 µM.
With `CNC(=S)N/N=C(C)\C(=N/NC(=S)NC)c1ccccc1`, the TGI was more than 100 µM in the assay with PC-3 prostate; more than 100 µM in the assay on UACC-62 melanoma; 72.5 µM in the assay on HS 578T breast; more than 100 µM in the assay on OVCAR-3 ovarian; more than 100 µM in the assay on SF-539 CNS; more than 100 µM in the assay on MDA-N. Besides, the TGI in the assay on SNB-75 CNS, in the assay on HCC-2998 colon, with HCT-116 colon, with UACC-257 melanoma, in the assay on NCI/ADR-RES ovarian and with M14 melanoma was more than 100 µM in each case. The TGI with MDA-MB-231 breast and with 786-0 renal was more than 100 µM throughout.
